# Read-outs that look alike come from different tables or passages of the source.
# Experiments:
# [1] = biological target: T1, R5 (Williamwhitmania taraxaci, UniProt A0A1G6J2J7); experiment: ITC; format: binding
# T1 sequence (A0A1G6J2J7 34-316 limits assumed): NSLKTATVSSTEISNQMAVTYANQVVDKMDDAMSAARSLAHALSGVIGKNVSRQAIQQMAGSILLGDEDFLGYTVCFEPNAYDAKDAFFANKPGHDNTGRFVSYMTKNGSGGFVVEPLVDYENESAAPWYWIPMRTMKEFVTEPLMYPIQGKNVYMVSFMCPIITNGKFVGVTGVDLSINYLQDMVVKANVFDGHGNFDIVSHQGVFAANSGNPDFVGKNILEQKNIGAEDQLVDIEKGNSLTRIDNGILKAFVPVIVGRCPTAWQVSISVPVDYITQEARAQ
# [2] = biological target: T2, R1 (Methanosarcina mazei, UniProt Q8PSW1); experiment: ITC; format: binding
# T2 sequence (Q8PSW1 32-312): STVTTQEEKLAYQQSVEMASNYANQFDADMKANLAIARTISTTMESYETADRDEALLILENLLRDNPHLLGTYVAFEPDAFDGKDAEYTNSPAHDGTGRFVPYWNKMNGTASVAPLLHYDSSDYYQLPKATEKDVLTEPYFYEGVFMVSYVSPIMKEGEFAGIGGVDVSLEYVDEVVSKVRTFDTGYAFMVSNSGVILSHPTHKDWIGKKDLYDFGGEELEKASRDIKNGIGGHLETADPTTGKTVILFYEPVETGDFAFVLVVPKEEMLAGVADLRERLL
# [3] = biological target: PacA-LBD (Pectobacterium atrosepticum, UniProt Q6D515); experiment: biochemical
# PacA-LBD, sequence (Q6D515 1-271): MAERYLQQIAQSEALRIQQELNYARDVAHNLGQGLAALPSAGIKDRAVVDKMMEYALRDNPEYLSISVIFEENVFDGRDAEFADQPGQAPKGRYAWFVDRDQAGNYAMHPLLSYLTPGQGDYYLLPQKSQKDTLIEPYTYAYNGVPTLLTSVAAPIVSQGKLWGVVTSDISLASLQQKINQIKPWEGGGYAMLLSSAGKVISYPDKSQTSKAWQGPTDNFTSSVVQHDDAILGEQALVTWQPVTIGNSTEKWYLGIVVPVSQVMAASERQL
# [4] = biological target: T3, R8 (Azospirillum baldaniorum, UniProt A0A9P1JTZ6); experiment: ITC; details: one binding site model
# T3 sequence (A0A9P1JTZ6 19-310): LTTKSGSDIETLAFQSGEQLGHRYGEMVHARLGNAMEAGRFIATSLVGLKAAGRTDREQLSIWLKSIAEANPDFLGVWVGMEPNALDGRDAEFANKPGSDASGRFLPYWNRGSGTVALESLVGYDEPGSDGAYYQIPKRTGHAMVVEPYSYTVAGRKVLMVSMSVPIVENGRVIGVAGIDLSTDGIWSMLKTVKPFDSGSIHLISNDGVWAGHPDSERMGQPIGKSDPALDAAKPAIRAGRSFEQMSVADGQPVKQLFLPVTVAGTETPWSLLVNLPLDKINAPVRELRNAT
# [5] = biological target: R6 (Oleiharenicola lentus, UniProt A0A4Q1C8G9); experiment: biochemical
# R6, sequence (A0A4Q1C8G9 35-324 limits assumed): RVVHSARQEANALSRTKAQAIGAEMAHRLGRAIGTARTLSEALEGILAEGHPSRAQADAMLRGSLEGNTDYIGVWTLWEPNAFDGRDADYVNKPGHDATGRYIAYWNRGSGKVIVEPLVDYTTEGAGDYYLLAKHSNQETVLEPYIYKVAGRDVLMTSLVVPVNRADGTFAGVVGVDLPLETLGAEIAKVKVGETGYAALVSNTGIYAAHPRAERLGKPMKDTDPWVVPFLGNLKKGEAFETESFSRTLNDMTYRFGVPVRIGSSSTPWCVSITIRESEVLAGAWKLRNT
# [6] = biological target: T4, R7 (Peptoclostridium litorale, UniProt A0A069RI07); experiment: ITC; format: binding
# T4 sequence (A0A069RI07 38-318 limits assumed): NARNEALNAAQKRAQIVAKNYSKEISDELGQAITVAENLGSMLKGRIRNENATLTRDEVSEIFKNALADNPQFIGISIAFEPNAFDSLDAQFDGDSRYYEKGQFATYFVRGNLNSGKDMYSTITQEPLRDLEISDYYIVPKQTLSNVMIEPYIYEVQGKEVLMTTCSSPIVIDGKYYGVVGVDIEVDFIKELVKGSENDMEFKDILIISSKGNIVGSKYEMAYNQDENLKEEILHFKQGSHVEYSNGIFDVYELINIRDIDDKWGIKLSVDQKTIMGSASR
# [7] = biological target: R3; experiment: ITC; parameters: species or system Desulfovibrio inopinatus; details: read-out: KD (uM) / Polyamine / Ethylenediamine; one binding site model
Structure (SMILES),Kd [1] [nM],Kd [2] [µM],Kd [6] [µM],other results
CN(C)C [Trimethylamine],1200 ± 100,10 ± 0.4,,Kd [3]: 113 ± 6 µM; Kd ([4]; read-out: KD (uM) / Methyl-/ethyl-/ethanol amines^* / Trimethylamine): 24 ± 4 µM; Kd [5]: 151 ± 4 µM
C[N+](C)(C)CCO [Choline],3600 ± 100,,,Kd ([4]; read-out: KD (uM) / Quaternary amines / Choline): 183 ± 4 µM
CNC [Dimethylamine],,0.53 ± 0.02,5.3 ± 0.4,Kd ([4]; read-out: KD (uM) / Methyl-/ethyl-/ethanol amines^* / Dimethylamine): 5.8 ± 1 µM
NCCN [Ethylenediamine],,,12.3 ± 1,Kd [7]: 29.6 ± 3 µM
CN [Methylamine],,35.1 ± 3,16.6 ± 2,Kd ([4]; read-out: KD (uM) / Methyl-/ethyl-/ethanol amines^* / Methylamine): 25.1 ± 3 µM
